This data set is classed as physicochemical. Conditions: for area of the main peak has decreased: after 72h at pH = 2.3, sodiumphosphate buffer, HPLC-ELSD. The protocol: Example 11. The acid stability of four dihydroartemisinin (DHA) derivatives was investigated. […] Phenomex Luna; 50 x 4.6 mm, 3 μ C18. ACN/H2O; 60/40 at 1.0 ml/min DHA dissolved in mob. phase to give 0,21 mg/ml Compound of formula 1, n=4 (3PEG-DHA) dissolved in H2O to give 0.48 mg/ml in 0.1 M buffer. […] Artemisone dissolved in mob. phase to give 0.20 mg/ml in 0.1 M buffer, Artesunate dissolved in mob. phase to give 0.24 mg/ml in 0.1 M buffer. 20 μ[…]

In the case of `C[C@H]1[C@H](OC(=O)CCC(=O)O)O[C@@H]2O[C@@]3(C)CC[C@H]4[C@H](C)CC[C@@H]1[C@@]24OO3` [artesunate], the degradation result is “No sign of degradation” and the “area of the main peak has decreased” value is recorded as “about 40%”. Also, the degraded (72 h, 0.24 mg/ml, pH 2.3) is on record as 41%.

Regarding `C[C@H]1[C@H](N2CCS(=O)(=O)CC2)O[C@@H]2O[C@@]3(C)CC[C@H]4[C@H](C)CC[C@@H]1[C@@]24OO3` [artemison, artemisone], the degradation entry is on record as “No sign of degradation” and the “area of the main peak has decreased” value is “about 71%”.

These data come from patent EP2573089A1, “Novel artmisinin derivatives” (Spago Imaging AB, priority 2011, dated 2013).
